According to patent US20180246095A1, “COMPOSITIONS AND METHODS FOR DIAGNOSING AND TREATING LYME DISEASE” (priority 2015, published 2018):

Test system: B. burgdorferi B31
Experiment: RNA-Seq gene expression profile of B. burgdorferi persisters that survived antibiotic treatment, compared with drug free control
Assay type: cell-based, Borrelia burgdorferi
Description: RNA Sequencing (RNA-Seq) was performed to determine the gene expression profile of B. burgdorferi persisters that survived antibiotic treatment using next generation sequencing to shed light on the mechanisms of B. burgdorferi persistence. B. burgdorferi B31 cultures were grown for 5 days to 1×10^7 spirochetes/ml in BSK-H medium followed by treatment with 50 μg/ml doxycycline or 50 μg/ml amoxicillin for 6 days. Triplicate biological samples were used for each group. The total RNA was extracted and ribosomal RNA was removed prior to preparation of cDNA libraries for Illumina sequencing. […] The RNA-Seq data was analyzed by BLAST analysis and mapped to KEGG pathways.

CC1(C)S[C@@H]2[C@H](NC(=O)[C@H](N)c3ccc(O)cc3)C(=O)N2[C@H]1C(=O)O [Amo]
145: Expression BB_0262 (M23 peptidase domain-containing protein)
6: Expression rplX BB_0489 (50S ribosomal protein L24) | Expression fliL BB_0279 (flagellar basal body-associated protein FliL)
0: Expression 5S_rrlB BB_r03 (5S ribosomal RNA) | Expression rpmC BB_0486 (50S ribosomal protein L29) | Expression tRNA-Ala-1 BB_t05 (Ala tRNA) | Expression BB_t21 (Arg tRNA) | Expression tRNA-Asp-1 BB_t12 (Asp tRNA) | Expression bdrK BB_M34 (BdrK) | Expression bdrR BB_N27 (BdrR protein) | Expression erpK BB_M38 (ErpK protein) | Expression tRNA-Gln-1 BB_t18 (Gln tRNA) | Expression BB_t23 (Lys tRNA) | Expression BB_t28 (Met tRNA) | Expression BB_M33 (PF-49 protein) | Expression BB_P33 (PF-49 protein) | Expression BB_t30 (Phe tRNA) | Expression BB_F03 (RepU) | Expression tRNA-Ser-3 BB_t06 (Ser tRNA) | Expression BB_0287 (flagellar protein FlbA) | Expression BB_0138 (gene BB_0138, hypothetical protein) | Expression BB_0305 (gene BB_0305, hypothetical protein) | Expression BB_E09 (gene BB_E09, protein p23) | Expression BB_E16 (gene BB_E16, hypothetical protein) | Expression BB_E17 (gene BB_E17, hypothetical protein) | Expression BB_E18 (gene BB_E18, hypothetical protein) | Expression BB_E19 (gene BB_E19, hypothetical protein) | Expression BB_E20 (gene BB_E20, hypothetical protein) | Expression BB_E21 (gene BB_E21, hypothetical protein) | Expression BB_E22 (gene BB_E22, pyrazinamidase/nicotinamidase PncA) | Expression BB_E31 (gene BB_E31, antigen, P35, putative) | Expression BB_F01 (gene BB_F01, hypothetical protein) | Expression BB_F02 (gene BB_F02, hypothetical protein) | Expression BB_F06 (gene BB_F06, hypothetical protein) | Expression BB_F08 (gene BB_F08, hypothetical protein) | Expression BB_F14 (gene BB_F14, hypothetical protein) | Expression BB_F17 (gene BB_F17, putative transmembrane protein) | Expression BB_F20 (gene BB_F20, BBF20) | Expression BB_F23 (gene BB_F23, PF49) | Expression BB_F24 (gene BB_F24, PF32) | Expression BB_F25 (gene BB_F25, hypothetical protein) | Expression BB_F26 (gene BB_F26, hypothetical protein) | Expression BB_F0034 (gene BB_F0034, hypothetical protein) | Expression BB_F0039 (gene BB_F0039, hypothetical protein) | Expression BB_F0040 (gene BB_F0040, hypothetical protein) | Expression BB_F0041 (gene BB_F0041, outer surface protein VlsE1) | Expression BB_I01 (gene BB_I01, hypothetical protein) | Expression BB_I02 (gene BB_I02, hypothetical protein) | Expression BB_I06 (gene BB_I06, MTA/SAH nucleosidase) | Expression BB_I12 (gene BB_I12, hypothetical protein) | Expression BB_I15 (gene BB_I15, virulence associated lipoprotein) | Expression BB_I18 (gene BB_I18, hypothetical protein) | Expression BB_I19 (gene BB_I19, hypothetical protein) | Expression BB_I20 (gene BB_I20, hypothetical protein) | Expression BB_I21 (gene BB_I21, PF-32 protein) | Expression BB_I22 (gene BB_I22, PF-49 protein) | Expression BB_I26 (gene BB_I26, multidrug-efflux transporter) | Expression BB_I29 (gene BB_I29, virulence associated lipoprotein) | Expression BB_I34 (gene BB_I34, virulence associated lipoprotein) | Expression BB_I36 (gene BB_I36, antigen P35) | Expression BB_I38 (gene BB_I38, surface antigen) | Expression BB_I41 (gene BB_I41, hypothetical protein) | Expression BB_I42 (gene BB_I42, outer membrane protein) | Expression BB_J42 (gene BB_J42, hypothetical protein) | Expression BB_J0058 (gene BB_J0058, hypothetical protein) | Expression BB_K01 (gene BB_K01, lipoprotein) | Expression BB_K07 (gene BB_K07, lipoprotein) | Expression BB_K09 (gene BB_K09, hypothetical protein) | Expression BB_K13 (gene BB_K13, hypothetical protein) | Expression BB_K15 (gene BB_K15, antigen P35) | Expression BB_K17 (gene BB_K17, adenine deaminase) | Expression BB_K19 (gene BB_K19, lipoprotein) | Expression BB_K21 (gene BB_K21, PF-32 protein) | Expression BB_K22 (gene BB_K22, hypothetical protein) | Expression BB_K23 (gene BB_K23, hypothetical protein) | Expression BB_K24 (gene BB_K24, PF-49 protein) | Expression BB_K32 (gene BB_K32, fibronectin-binding protein) | Expression BB_K33 (gene BB_K33, hypothetical protein) | Expression BB_K34 (gene BB_K34, hypothetical protein) | Expression BB_K35 (gene BB_K35, hypothetical protein) | Expression BB_K40 (gene BB_K40, hypothetical protein) | Expression BB_K41 (gene BB_K41, hypothetical protein) | Expression BB_K42 (gene BB_K42, hypothetical protein) | Expression BB_K45 (gene BB_K45, immunogenic protein P37) | Expression BB_K47 (gene BB_K47, hypothetical protein) | Expression BB_K48 (gene BB_K48, immunogenic protein P37) | Expression BB_K49 (gene BB_K49, hypothetical protein) | Expression BB_K50 (gene BB_K50, immunogenic protein P37) | Expression BB_K52 (gene BB_K52, lipoprotein) | Expression BB_K53 (gene BB_K53, outer membrane protein) | Expression BB_K54 (gene BB_K54, hypothetical protein) | Expression BB_K0058 (gene BB_K0058, hypothetical protein) | Expression BB_K0059 (gene BB_K0059, hypothetical protein) | Expression BB_L15 (gene BB_L15, hypothetical protein) | Expression BB_L16 (gene BB_L16, hypothetical protein) | Expression BB_L17 (gene BB_L17, hypothetical protein) | Expression BB_L18 (gene BB_L18, hypothetical protein) | Expression BB_L21 (gene BB_L21, hypothetical protein) | Expression BB_L22 (gene BB_L22, hypothetical protein) | Expression BB_L29 (gene BB_L29, hypothetical protein) | Expression BB_L31 (gene BB_L31, hypothetical protein) | Expression BB_L32 (gene BB_L32, PF-32 protein) | Expression BB_N08 (gene BB_N08, hypothetical protein) | Expression BB_Q03 (gene BB_Q03, outer membrane protein) | Expression BB_Q05 (gene BB_Q05, antigen, P35) | Expression BB_Q07 (gene BB_Q07, plasmid partition protein) | Expression BB_Q08 (gene BB_Q08, PF-32 protein) | Expression BB_Q09 (gene BB_Q09, hypothetical protein) | Expression BB_Q40 (gene BB_Q40, PF-32 protein) | Expression BB_Q48 (gene BB_Q48, hypothetical protein) | Expression BB_Q49 (gene BB_Q49, hypothetical protein) | Expression BB_Q67 (gene BB_Q67, adenine specific DNA methyltransferase) | Expression BB_T01 (gene BB_T01, hypothetical protein) | Expression BB_T02 (gene BB_T02, hypothetical protein) | Expression BB_T03 (gene BB_T03, hypothetical protein) | Expression BB_T04 (gene BB_T04, hypothetical protein) | Expression BB_T06 (gene BB_T06, Sua5/YciO/YrdC/YwlC family protein) | Expression BB_T07 (gene BB_T07, outer membrane protein) | Expression BB_U01 (gene BB_U01, hypothetical protein) | Expression BB_U04 (gene BB_U04, protein BBC01)
3039: Expression 23S_rrlB BB_r04 (23S ribosomal RNA)
52: Expression rpmE BB_0229 (50S ribosomal protein L31)
3: Expression thyX BB_A76 (FAD-dependent thymidylate synthase)
9453: Expression BB_A64 (P35 antigen)
1: Expression BB_0090 (V-type ATP synthase subunit K) | Expression BB_A21 (gene BB_A21, PF-49 protein) | Expression BB_L30 (gene BB_L30, hypothetical protein) | Expression BB_N33 (gene BB_N33, PF-49 protein)
64256: Expression predicted RNA antisense: BB_0034
5: Expression BB_H32 (antigen P35) | Expression flgB BB_0294 (flagellar basal body rod protein FlgB) | Expression BB_Q89 (gene BB_Q89, lipoprotein)
233: Expression cheR BB_0040 (chemotaxis protein methyltransferase)
71642: Expression predicted RNA antisense: BB_0147
73: Expression BB_0147 (flagellin)
25214: Expression predicted RNA antisense: tRNA-Gln-1 BB_0786
15: Expression bdrH BB_R27 (BdrH) | Expression tRNA-Leu-4 BB_t17 (Leu tRNA) | Expression BB_P32 (PF-32 protein)
44966: Expression predicted RNA antisense: BB_B22
19231: Expression predicted RNA antisense: napA
21: Expression rplM BB_0339 (50S ribosomal protein L13)
66: Expression rpsI BB_0338 (30S ribosomal protein S9)
70553: Expression predicted RNA antisense: BB_A59
29768: Expression predicted RNA antisense: BB_0465
176: Expression smpB BB_0033 (SsrA-binding protein)
26: Expression tRNA-Asn-1 BB_t11 (Asn tRNA)
96: Expression BB_0582 (carboxypeptidase)
35398: Expression predicted RNA antisense: BB_0631
267: Expression cdd BB_0618 (cytidine deaminase)
115: Expression lp6.6 BB_A62 (6.6 kDa lipoprotein)
14: Expression rpsH BB_0492 (30S ribosomal protein S8) | Expression rpmJ BB_0499 (50S ribosomal protein L36)
33897: Expression predicted RNA antisense: rpsM
28: Expression rpmF BB_0703 (50S ribosomal protein L32)
140114: Expression predicted RNA antisense: lp6.6
3005: Expression 23S_rrlA BB_r02 (23S ribosomal RNA)
34: Expression rpsU BB_0256 (30S ribosomal protein S21)
2060: Expression lnt BB_0237 (apolipoprotein N-acyltransferase)
23: Expression rplI BB_0112 (50S ribosomal protein L9)
2: Expression rpsQ BB_0487 (30S ribosomal protein S17) | Expression BB_H33 (adenine deaminase) | Expression BB_U02 (gene BB_U02, hypothetical protein)
10: Expression BB_H06 (complement regulator-acquiring surface protein)
11: Expression BB_t33 (Thr tRNA)
1187: Expression BB_t25 (Gly tRNA)
17: Expression rplQ BB_0503 (50S ribosomal protein L17)
39823: Expression predicted RNA antisense: BB_0269
48: Expression BB_0087 (L-lactate dehydrogenase)
7: Expression BB_t20 (Ser tRNA)
45574: Expression predicted RNA antisense: fusA
4: Expression BB_0321 (gene BB_0321, hypothetical protein)
39487: Expression predicted RNA antisense: BB_0559
177: Expression BB_0559 (PTS system glucose-specific transporter subunit IIA)
249: Expression murB BB_0598 (UDP-N-acetylenolpyruvoylglucosamine reductase)
102443: Expression predicted RNA antisense: ospA ospB
